Experimental data reported in ChEMBL document CHEMBL4038287, “Design, synthesis, and in vitro evaluation of novel antifungal triazoles” (2017).
In brackets after ≈: the same amount, converted by molar mass.

Assays:
Assay type in all cases: functional
Candida parapsilosis = test: Antifungal activity against Candida parapsilosis isolate 22019 by micro-broth dilution method; conditions: Lodderomyces parapsilosis
Trichophyton rubrum = test: Antifungal activity against Trichophyton rubrum isolate cmccftla by micro-broth dilution method
Aspergillus fumigatus = test: Antifungal activity against Aspergillus fumigatus isolate 7544 by micro-broth dilution method
Candida albicans [1] = test: Antifungal activity against Candida albicans isolate Y0109 by micro-broth dilution method
Nakaseomyces glabratus = test: Antifungal activity against Candida glabrata isolate 537 by micro-broth dilution method
Candida albicans [2] = test: Antifungal activity against Candida albicans isolate SC5314 by micro-broth dilution method
Cryptococcus neoformans = test: Antifungal activity against Cryptococcus neoformans isolate 32605 by micro-broth dilution method
Nannizzia gypsea = test: Antifungal activity against Microsporum gypseum isolate cmccftla by micro-broth dilution method

Row | SMILES | MIC80 (Candida parapsilosis) [µg/mL] | MIC80 (Trichophyton rubrum) [µg/mL] | MIC80 (Aspergillus fumigatus) [µg/mL] | MIC80 (Candida albicans [1]) [µg/mL] | MIC80 (Nakaseomyces glabratus) [µg/mL] | MIC80 (Candida albicans [2]) [µg/mL] | MIC80 (Cryptococcus neoformans) [µg/mL] | MIC80 (Nannizzia gypsea) [µg/mL]
1 | C[C@@H](c1cc(-c2c(F)cccc2F)no1)[C@](O)(Cn1cncn1)c1cc(F)ccc1F | 1 (≈ 2.31 µM) | 4 (≈ 9.25 µM) | > 8 | 1 (≈ 2.31 µM) | 0.125 (≈ 0.289 µM) | 0.5 (≈ 1.16 µM) | 0.0625 (≈ 0.145 µM) | > 8
2 | C[C@@H](c1cc(-c2c(F)cccc2F)no1)[C@](O)(Cn1cncn1)c1ccc(F)cc1F | 0.125 (≈ 0.289 µM) | 0.125 (≈ 0.289 µM) | 2 (≈ 4.63 µM) | 0.0625 (≈ 0.145 µM) | 0.0625 (≈ 0.145 µM) | 0.125 (≈ 0.289 µM) | 0.125 (≈ 0.289 µM) | 1 (≈ 2.31 µM)
3 | C[C@@H](c1cc(-c2ccc(Cl)cc2)no1)[C@](O)(Cn1cncn1)c1ccc(F)cc1F | 0.125 (≈ 0.29 µM) | 0.125 (≈ 0.29 µM) | 4 (≈ 9.28 µM) | 0.0313 (≈ 0.0726 µM) | 0.125 (≈ 0.29 µM) | 0.125 (≈ 0.29 µM) | 0.125 (≈ 0.29 µM) | 1 (≈ 2.32 µM)
4 | C[C@@H](c1cc(-c2ccc(F)cc2)no1)[C@](O)(Cn1cncn1)c1cc(F)ccc1F | 0.25 (≈ 0.603 µM) | 1 (≈ 2.41 µM) | > 8 | 0.125 (≈ 0.302 µM) | 0.0625 (≈ 0.151 µM) | 0.125 (≈ 0.302 µM) | 0.0625 (≈ 0.151 µM) | > 8
5 | C[C@@H](c1cc(-c2ccccc2F)no1)[C@](O)(Cn1cncn1)c1ccc(F)cc1F | 0.125 (≈ 0.302 µM) | 0.0625 (≈ 0.151 µM) | 2 (≈ 4.83 µM) | 0.0625 (≈ 0.151 µM) | 0.0313 (≈ 0.0755 µM) | 0.0313 (≈ 0.0755 µM) | 0.125 (≈ 0.302 µM) | 0.5 (≈ 1.21 µM)
6 | Cc1ccc(-c2cc([C@H](C)[C@](O)(Cn3cncn3)c3ccc(F)cc3F)on2)cc1 | 0.125 (≈ 0.305 µM) | 0.25 (≈ 0.609 µM) | 8 (≈ 19.5 µM) | 0.25 (≈ 0.609 µM) | 0.25 (≈ 0.609 µM) | 0.0625 (≈ 0.152 µM) | 0.125 (≈ 0.305 µM) | 2 (≈ 4.87 µM)
7 | C[C@@H](c1cc(-c2ccc(F)cc2F)no1)[C@](O)(Cn1cncn1)c1cc(F)ccc1F | 1 (≈ 2.31 µM) | 1 (≈ 2.31 µM) | > 8 | 0.125 (≈ 0.289 µM) | 0.0625 (≈ 0.145 µM) | 0.25 (≈ 0.578 µM) | 0.0625 (≈ 0.145 µM) | 4 (≈ 9.25 µM)
8 | C[C@@H](c1cc(-c2ccc(F)cc2F)no1)[C@](O)(Cn1cncn1)c1ccc(F)cc1F | 0.125 (≈ 0.289 µM) | 0.0625 (≈ 0.145 µM) | 2 (≈ 4.63 µM) | 0.0625 (≈ 0.145 µM) | 0.0313 (≈ 0.0724 µM) | 0.0625 (≈ 0.145 µM) | 0.125 (≈ 0.289 µM) | 0.5 (≈ 1.16 µM)
9 | C[C@@H](c1cc(-c2c(F)cc(F)cc2F)no1)[C@](O)(Cn1cncn1)c1ccc(F)cc1F | 0.125 (≈ 0.278 µM) | 0.5 (≈ 1.11 µM) | 2 (≈ 4.44 µM) | 0.125 (≈ 0.278 µM) | 0.0625 (≈ 0.139 µM) | 0.25 (≈ 0.555 µM) | 0.0625 (≈ 0.139 µM) | 1 (≈ 2.22 µM)
10 | C[C@@H](c1cc(-c2ccc(C(F)(F)F)cc2)no1)[C@](O)(Cn1cncn1)c1ccc(F)cc1F | 1 (≈ 2.15 µM) | 2 (≈ 4.31 µM) | > 8 | 0.125 (≈ 0.269 µM) | 1 (≈ 2.15 µM) | 0.5 (≈ 1.08 µM) | 0.125 (≈ 0.269 µM) | 2 (≈ 4.31 µM)
11 | C[C@@H](c1cc(-c2ccc(OC(F)(F)F)cc2)no1)[C@](O)(Cn1cncn1)c1ccc(F)cc1F | 0.5 (≈ 1.04 µM) | 0.125 (≈ 0.26 µM) | 8 (≈ 16.7 µM) | 0.0313 (≈ 0.0652 µM) | 0.0625 (≈ 0.13 µM) | 0.125 (≈ 0.26 µM) | 0.125 (≈ 0.26 µM) | 4 (≈ 8.33 µM)
12 | C[C@@H](c1cc(-c2ccc(Cl)cc2F)no1)[C@](O)(Cn1cncn1)c1cc(F)ccc1F | 1 (≈ 2.23 µM) | 1 (≈ 2.23 µM) | > 8 | 0.25 (≈ 0.557 µM) | 0.0313 (≈ 0.0697 µM) | 0.5 (≈ 1.11 µM) | 0.125 (≈ 0.279 µM) | 8 (≈ 17.8 µM)
13 | C[C@@H](c1cc(-c2ccc(Cl)c(Cl)c2)no1)[C@](O)(Cn1cncn1)c1ccc(F)cc1F | 0.5 (≈ 1.07 µM) | 0.5 (≈ 1.07 µM) | > 8 | 0.0625 (≈ 0.134 µM) | 0.25 (≈ 0.537 µM) | 0.25 (≈ 0.537 µM) | 0.25 (≈ 0.537 µM) | 4 (≈ 8.6 µM)
14 | OC(Cn1cncn1)(Cn1cncn1)c1ccc(F)cc1F [FLUCONAZOLE] | 2 (≈ 6.53 µM) | 8 (≈ 26.1 µM) | > 64 | 0.25 (≈ 0.816 µM) | 2 (≈ 6.53 µM) | 0.5 (≈ 1.63 µM) | 0.5 (≈ 1.63 µM) | 32 (≈ 104 µM)
15 | CC(=O)N1CCN(c2ccc(OCC3COC(Cn4ccnc4)(c4ccc(Cl)cc4Cl)O3)cc2)CC1 (stereo not drawn) [KETOCONAZOLE] | 0.5 (≈ 0.941 µM) | 1 (≈ 1.88 µM) | 4 (≈ 7.53 µM) | 0.25 (≈ 0.47 µM) | 0.0625 (≈ 0.118 µM) | 0.125 (≈ 0.235 µM) | 0.0625 (≈ 0.118 µM) | 1 (≈ 1.88 µM)
16 | C[C@@H](c1nc(-c2ccc(C#N)cc2)cs1)[C@](O)(Cn1cncn1)c1ccc(F)cc1F [RAVUCONAZOLE] | 0.25 (≈ 0.571 µM) | 0.125 (≈ 0.286 µM) | 2 (≈ 4.57 µM) | 0.0625 (≈ 0.143 µM) | 0.125 (≈ 0.286 µM) | 0.0625 (≈ 0.143 µM) | 0.125 (≈ 0.286 µM) | 1 (≈ 2.29 µM)
